# From US20090131354A1, “miR-126 REGULATED GENES AND PATHWAYS AS TARGETS FOR THERAPEUTIC INTERVENTION” (priority 2007, published 2009)
# pIC50: −log10 of the molar value.
# Columns and labels:
# H520 lung cancer cells = experiment: Alamar Blue proliferation assay, H520; assay type: cell-based, human
# Description: (§1) The inventors assessed the therapeutic effect of hsa-miR-126 for lung cancer by using 11 individual lung cancer cell lines. To measure cellular proliferation of lung cancer cells, the following non-small cell lung cancer (NSCLC) cells were used: cells derived from lung adenocarcinoma (A549, H1299, H522, H838, Calu-3, HCC827, HCC2935), cells derived from lung squamous cell carcinoma (H520, H226), cells derived from lung bronchioalveolar carcinoma (H1650), and cells derived from lung large cell carcinoma (H460). Synthetic hsa-miR-126 (Pre-miR™-hsa-miR-126, Ambion cat. no. AM17100) or negative control (NC) miRNA (Pre-miR™ microRNA Precursor Molecule-Negative Control #2; Ambion cat. no. AM17111) was delivered via lipid-based transfection into A549, H1299, H522, H838, Calu-3, HCC827, HCC2935, H520, H1650, and H460 cells, and via electroporation into H226 cells.
# (§2) Lipid-based reverse transfections were carried out in triplicate according to a published protocol (Ovcharenko et al., 2005) and the following parameters: Cells (5,000-12,000 per 96 well), 0.1-0.2 μl Lipofectamine™ 2000 (cat. no. 11668-019, Invitrogen Corp., Carlsbad, Calif., USA) in 20 μl OptiMEM (Invitrogen), 30 nM final concentration of miRNA in 100 μl. Electroporation of H226 cells was carried out using the BioRad Gene Pulser Xcell™ instrument (BioRad Laboratories Inc., Hercules, Calif., USA) with the following settings: 5×10^6 cells with 5 μg miRNA in 200 μl OptiMEM (1.6 μM miRNA), square wave pulse at 250 V for 5 ms. Electroporated H226 cells were seeded at 7,000 cells per 96-well in a total volume of 100 μl. All cells except for Calu-3 cells were harvested 72 hours post transfection or electroporation for assessment of cellular proliferation. Calu-3 cells were harvested 10 days post transfection. Proliferation assays were performed using Alamar Blue (Invitrogen) following the manufacturer's instructions. As a control for inhibition of cellular proliferation, siRNA against the motor protein kinesin 11, also known as Eg5, was used. […]
# H522 lung cancer cells = experiment: Alamar Blue proliferation assay, H522; assay type: cell-based, human; details: relative to NC miRNA (100%)
# Description: as §1, §2
# HCC827 lung cancer cells = experiment: Alamar Blue proliferation assay, HCC827; assay type: cell-based, human; details: relative to NC miRNA (100%)
# Description: as §1, §2
# Calu-3 lung cancer cells = experiment: Alamar Blue proliferation assay, Calu-3; assay type: cell-based, human
# Description: as §1
# Electroporation of H226 cells was carried out using the BioRad Gene Pulser Xcell™ instrument (BioRad Laboratories Inc., Hercules, Calif., USA) with the following settings: 5×10^6 cells with 5 μg miRNA in 200 μl OptiMEM (1.6 μM miRNA), square wave pulse at 250 V for 5 ms. Electroporated H226 cells were seeded at 7,000 cells per 96-well in a total volume of 100 μl. All cells except for Calu-3 cells were harvested 72 hours post transfection or electroporation for assessment of cellular proliferation. Calu-3 cells were harvested 10 days post transfection. Proliferation assays were performed using Alamar Blue (Invitrogen) following the manufacturer's instructions. As a control for inhibition of cellular proliferation, siRNA against the motor protein kinesin 11, also known as Eg5, was used. Eg5 is essential for cellular survival of most eukaryotic cells and a lack thereof leads to reduced cell proliferation and cell death (Weil et al., 2002). siEg5 was used in lipid-based transfection following the same experimental parameters that apply to miRNA. The inventors also used a DNA topoisomerase II inhibitor, etoposide, at a final concentration of 10 μM and 50 μM as an internal standard for the potency of miRNAs. […]
# SCLC and NSCLC cells = details: various lung cancer cells; cited from earlier work
# H460 lung cancer cells = experiment: Dose-dependent inhibition of proliferation (Alamar Blue), H460; assay type: cell-based, human; details: normalized to mock-transfected cells (0 pM = 100%)
# Experimental: Lipid-based reverse transfections were carried out in triplicate according to a published protocol (Ovcharenko et al., 2005) and the following parameters: Cells (5,000-12,000 per 96 well), 0.1-0.2 μl Lipofectamine™ 2000 (cat. no. 11668-019, Invitrogen Corp., Carlsbad, Calif., USA) in 20 μl OptiMEM (Invitrogen), 30 nM final concentration of miRNA in 100 μl. Electroporation of H226 cells was carried out using the BioRad Gene Pulser Xcell™ instrument (BioRad Laboratories Inc., Hercules, Calif., USA) with the following settings: 5×10^6 cells with 5 μg miRNA in 200 μl OptiMEM (1.6 μM miRNA), square wave pulse at 250 V for 5 ms. Electroporated H226 cells were seeded at 7,000 cells per 96-well in a total volume of 100 μl. All cells except for Calu-3 cells were harvested 72 hours post transfection or electroporation for assessment of cellular proliferation. Calu-3 cells were harvested 10 days post transfection. Proliferation assays were performed using Alamar Blue (Invitrogen) following the manufacturer's instructions. As a control for inhibition of cellular proliferation, siRNA against the motor protein kinesin 11, also known as Eg5, was used. Eg5 is essential for cellular survival of most eukaryotic cells and a lack thereof leads to reduced cell proliferation and cell death (Weil et al., 2002). siEg5 was used in lipid-based transfection following the same experimental parameters that apply to miRNA. The inventors also used a DNA topoisomerase II inhibitor, etoposide, at a final concentration of 10 μM and 50 μM as an internal standard for the potency of miRNAs. Etoposide is an FDA-approved DNA topoisomerase II inhibitor in the treatment of lung cancer. […] Percent (%) proliferation values from the Alamar Blue assay were normalized to values from cells treated with negative control miRNA. Percent proliferation of hsa-miR-126 treated cells relative to cells treated with negative control miRNA (100%) is shown in Table 6 and in FIG. 1.
# The inventors determined sensitivity and specificity of hsa-miR-126 by administering hsa-miR-126 or negative control miRNA at increasing concentrations, ranging from 0 pM to 3,000 pM (Table 7, FIG. 2). Delivery of miRNA and assessment of cellular proliferation of A549 and H460 cells were done as described above. Proliferation values from the Alamar Blue assay were normalized to values obtained from mock-transfected cells (0 pM=100% proliferation). Increasing amounts of negative control miRNA (NC) had no effect on cellular proliferation of A549 or H460 cells (Table 7 and FIG. 2). In contrast, the growth-inhibitory phenotype of hsa-miR-126 is dose-dependent and correlates with increasing amounts of hsa-miR-126 (Table 7 and FIG. 2). Hsa-miR-126 induces a specific therapeutic response at concentrations as low as 300 pM.
Molecule,"% proliferation (H520 lung cancer cells; H520, 50 μM, relative to NC miRNA (100%)) [%]","% proliferation (H520 lung cancer cells; H520, relative to NC miRNA (100%)) [%]","% proliferation (H522 lung cancer cells; H522, 10 μM) [%]","% proliferation (H522 lung cancer cells; H522, 50 μM) [%]","% proliferation (HCC827 lung cancer cells; HCC827, 30 nM) [%]","% proliferation (HCC827 lung cancer cells; HCC827, 10 μM) [%]","% proliferation (Calu-3 lung cancer cells; Calu-3, 10 μM, relative to NC miRNA (100%)) [%]","% proliferation (Calu-3 lung cancer cells; Calu-3, relative to NC miRNA (100%)) [%]",pIC50 (SCLC and NSCLC cells),"% proliferation (H520 lung cancer cells; H520, 30 nM, 72 h, relative to NC miRNA (100%)) [%]","% proliferation (H522 lung cancer cells; H522, 30 nM, 72 h) [%]","% proliferation (HCC827 lung cancer cells; HCC827, 30 nM, 72 h) [%]","% proliferation (Calu-3 lung cancer cells; Calu-3, 30 nM, 10 days, relative to NC miRNA (100%)) [%]","% proliferation (H460 lung cancer cells; H460 cells, 3 pM miRNA) [%]","% proliferation (H460 lung cancer cells; H460 cells, 30 pM miRNA) [%]","% proliferation (H460 lung cancer cells; H460 cells, 300 pM miRNA) [%]","% proliferation (H460 lung cancer cells; H460 cells, 3,000 pM miRNA) [%]"
COc1cc([C@@H]2c3cc4c(cc3[C@@H](O[C@@H]3O[C@@H]5CO[C@@H](C)O[C@H]5[C@H](O)[C@H]3O)[C@H]3COC(=O)[C@H]23)OCO4)cc(OC)c1O [etoposide],48.53,66.80,82.13,61.08,82.53,98.95,20.81,13.53,4.60 to 6.00,–,–,–,–,–,–,–,–
"hsa-miR-126 (UCGUACCGUGAGUAAUAAUGC; synthetic pre-miR form, further chemistry not given here) [Synthetic hsa-miR-126 (Pre-miR™-hsa-miR-126, Ambion cat. no. AM17100)]",–,–,–,–,–,–,–,–,–,80.99,74.62,84.31,65.05,105.60,108.98,86.46,33.91
